Measured values published in ChEMBL document CHEMBL1201862, “PubChem BioAssay data set” (2004).
Activity calls are given as the source filed them.

How the values were obtained:
[1] = inhibitors of firefly luciferase expression or activity, dose response, H4 neuroglioma cells, luminescence (AID 1990); format: functional, cell-based
[2] = Luminescence Cell-Based Dose Response HTS to Identify Inhibitors of 5'UTR Stem-Loop Driven Prion Protein mRNA Translation in H4 Neuroglioblastoma Cells. [Related pubchem assays: 1827 (Project Summary), 1813 (Primary HTS)]; format: functional
[3] = inhibitors of SNCA 5'UTR-driven reporter translation, confirmation, H4 neuroglioma cells, luminescence (AID 1988); format: functional, cell-based
[4] = cells; format: functional, cell-based
[5] = target: T1, Nuclear receptor subfamily 0 group B member 1 (Homo sapiens, UniProt P51843); format: functional, cell-based;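 note: HEK293T cells transfected with SF-1 and DAX-1 plus StAR promoter luciferase reporter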
T1 sequence (P51843 whole entry): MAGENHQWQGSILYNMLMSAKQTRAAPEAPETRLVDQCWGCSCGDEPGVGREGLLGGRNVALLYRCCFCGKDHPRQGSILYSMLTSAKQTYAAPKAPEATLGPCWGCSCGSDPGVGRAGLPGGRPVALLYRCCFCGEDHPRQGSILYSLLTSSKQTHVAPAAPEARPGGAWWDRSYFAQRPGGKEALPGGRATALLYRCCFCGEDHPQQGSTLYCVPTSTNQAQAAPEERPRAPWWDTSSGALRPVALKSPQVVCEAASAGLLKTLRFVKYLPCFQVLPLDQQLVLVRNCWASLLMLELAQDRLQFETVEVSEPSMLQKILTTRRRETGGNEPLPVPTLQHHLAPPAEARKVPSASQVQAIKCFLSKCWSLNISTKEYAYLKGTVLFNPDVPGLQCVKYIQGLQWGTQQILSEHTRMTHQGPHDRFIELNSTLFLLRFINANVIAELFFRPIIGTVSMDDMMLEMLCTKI

[6] = cells; format: functional, cell-based; remark: listed apart in the source
[7] = cells; format: functional, cell-based; remark: listed apart in the source
[8] = target: T2, Replicative DNA helicase DnaB (Mycobacterium tuberculosis, UniProt P9WMR3); test: DnaB intein splicing inhibitors, dose response, biochemical, cell-free fluorescence (AID 449749); format: functional
T2 sequence (P9WMR3 whole entry): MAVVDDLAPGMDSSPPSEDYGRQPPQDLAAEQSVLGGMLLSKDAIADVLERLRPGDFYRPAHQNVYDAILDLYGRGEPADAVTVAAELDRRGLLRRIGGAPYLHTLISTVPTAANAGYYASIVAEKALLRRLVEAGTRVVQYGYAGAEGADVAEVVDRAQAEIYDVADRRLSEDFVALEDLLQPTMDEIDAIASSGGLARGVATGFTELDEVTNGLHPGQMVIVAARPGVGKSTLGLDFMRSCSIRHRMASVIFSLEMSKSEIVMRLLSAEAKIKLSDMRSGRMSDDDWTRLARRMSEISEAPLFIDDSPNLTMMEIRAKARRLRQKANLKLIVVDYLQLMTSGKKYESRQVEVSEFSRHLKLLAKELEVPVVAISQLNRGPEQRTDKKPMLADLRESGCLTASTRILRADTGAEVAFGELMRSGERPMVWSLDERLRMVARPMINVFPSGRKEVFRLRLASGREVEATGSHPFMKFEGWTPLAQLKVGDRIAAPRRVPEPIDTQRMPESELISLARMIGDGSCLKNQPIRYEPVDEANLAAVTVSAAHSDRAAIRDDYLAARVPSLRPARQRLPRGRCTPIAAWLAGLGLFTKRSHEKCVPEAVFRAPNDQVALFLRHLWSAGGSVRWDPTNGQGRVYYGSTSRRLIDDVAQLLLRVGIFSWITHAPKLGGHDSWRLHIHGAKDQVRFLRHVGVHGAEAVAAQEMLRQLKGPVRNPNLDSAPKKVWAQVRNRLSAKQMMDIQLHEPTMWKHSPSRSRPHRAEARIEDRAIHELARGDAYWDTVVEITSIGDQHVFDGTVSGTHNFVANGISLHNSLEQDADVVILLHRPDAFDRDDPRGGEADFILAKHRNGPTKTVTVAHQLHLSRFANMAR

[9] = Counterscreen for activators of the function of SWI/SNF related, matrix associated, actin dependent regulator of chromatin, subfamily a, member 2 (SMARCA2, BRM): Luminescence-based cell-based high throughput dose response assay to identify non-selective compounds using the VP16 reporter assay.; format: functional
[10] = target: SWI/SNF-related matrix-associated actin-dependent regulator of chromatin subfamily A member 2 (Homo sapiens, UniProt P51531); test: Luminescence-based cell-based high throughput dose response assay to identify activators of the function of SWI/SNF related, matrix associated, actin dependent regulator of chromatin, subfamily a, member 2 (SMARCA2, BRM).; format: functional
Sequence of SWI/SNF-related matrix-associated actin-dependent regulator of chromatin subfamily A member 2 (P51531 whole entry): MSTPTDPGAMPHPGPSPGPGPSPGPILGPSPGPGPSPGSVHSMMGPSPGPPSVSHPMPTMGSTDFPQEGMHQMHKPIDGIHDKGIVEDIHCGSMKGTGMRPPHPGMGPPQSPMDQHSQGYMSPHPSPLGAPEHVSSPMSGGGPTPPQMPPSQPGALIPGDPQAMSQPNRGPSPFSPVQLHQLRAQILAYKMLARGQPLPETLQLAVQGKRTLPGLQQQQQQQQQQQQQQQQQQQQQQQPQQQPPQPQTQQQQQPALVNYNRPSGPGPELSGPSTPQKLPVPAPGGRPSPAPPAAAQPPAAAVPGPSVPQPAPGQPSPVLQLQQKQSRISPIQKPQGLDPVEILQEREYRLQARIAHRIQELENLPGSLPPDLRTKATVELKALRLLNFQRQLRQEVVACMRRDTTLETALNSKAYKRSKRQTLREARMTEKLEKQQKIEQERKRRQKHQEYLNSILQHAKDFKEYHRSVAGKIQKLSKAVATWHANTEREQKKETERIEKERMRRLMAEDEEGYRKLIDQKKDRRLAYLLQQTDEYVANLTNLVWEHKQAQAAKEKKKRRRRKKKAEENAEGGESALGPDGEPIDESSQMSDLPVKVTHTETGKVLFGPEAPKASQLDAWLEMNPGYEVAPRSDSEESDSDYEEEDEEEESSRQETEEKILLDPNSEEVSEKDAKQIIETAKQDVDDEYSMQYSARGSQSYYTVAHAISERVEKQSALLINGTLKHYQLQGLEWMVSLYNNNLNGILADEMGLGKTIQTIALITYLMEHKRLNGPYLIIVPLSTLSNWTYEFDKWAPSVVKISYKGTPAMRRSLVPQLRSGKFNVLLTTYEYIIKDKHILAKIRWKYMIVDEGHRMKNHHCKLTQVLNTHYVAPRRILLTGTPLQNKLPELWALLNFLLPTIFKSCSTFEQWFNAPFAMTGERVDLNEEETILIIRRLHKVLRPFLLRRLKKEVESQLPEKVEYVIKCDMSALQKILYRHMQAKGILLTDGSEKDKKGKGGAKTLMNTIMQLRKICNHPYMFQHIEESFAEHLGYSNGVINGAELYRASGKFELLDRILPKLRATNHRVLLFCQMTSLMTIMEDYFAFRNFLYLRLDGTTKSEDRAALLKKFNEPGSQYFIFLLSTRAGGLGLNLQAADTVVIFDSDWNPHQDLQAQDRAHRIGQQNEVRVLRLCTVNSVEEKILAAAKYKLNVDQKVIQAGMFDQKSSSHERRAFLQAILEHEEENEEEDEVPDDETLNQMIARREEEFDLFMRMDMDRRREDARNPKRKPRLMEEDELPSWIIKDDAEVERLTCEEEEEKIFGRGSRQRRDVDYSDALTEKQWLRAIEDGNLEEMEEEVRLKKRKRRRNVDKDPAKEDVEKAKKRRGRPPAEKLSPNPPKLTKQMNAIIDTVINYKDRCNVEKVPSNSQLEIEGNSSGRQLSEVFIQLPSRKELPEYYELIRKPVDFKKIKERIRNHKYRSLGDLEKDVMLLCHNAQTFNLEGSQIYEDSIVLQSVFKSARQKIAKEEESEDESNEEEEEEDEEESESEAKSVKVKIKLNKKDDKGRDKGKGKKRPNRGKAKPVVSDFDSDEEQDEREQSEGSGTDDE

[11] = target: T3, Protein RecA (Mycobacterium tuberculosis, UniProt P9WHJ3); test: Fluorescence Cell-Free Homogeneous Dose Retest to Identify Inhibitors of RecA-Intein Splicing Activity. [Related pubchem assays (depositor defined):AID2097, AID2223, AID489010, AID492950]; format: functional
T3 sequence (P9WHJ3 whole entry): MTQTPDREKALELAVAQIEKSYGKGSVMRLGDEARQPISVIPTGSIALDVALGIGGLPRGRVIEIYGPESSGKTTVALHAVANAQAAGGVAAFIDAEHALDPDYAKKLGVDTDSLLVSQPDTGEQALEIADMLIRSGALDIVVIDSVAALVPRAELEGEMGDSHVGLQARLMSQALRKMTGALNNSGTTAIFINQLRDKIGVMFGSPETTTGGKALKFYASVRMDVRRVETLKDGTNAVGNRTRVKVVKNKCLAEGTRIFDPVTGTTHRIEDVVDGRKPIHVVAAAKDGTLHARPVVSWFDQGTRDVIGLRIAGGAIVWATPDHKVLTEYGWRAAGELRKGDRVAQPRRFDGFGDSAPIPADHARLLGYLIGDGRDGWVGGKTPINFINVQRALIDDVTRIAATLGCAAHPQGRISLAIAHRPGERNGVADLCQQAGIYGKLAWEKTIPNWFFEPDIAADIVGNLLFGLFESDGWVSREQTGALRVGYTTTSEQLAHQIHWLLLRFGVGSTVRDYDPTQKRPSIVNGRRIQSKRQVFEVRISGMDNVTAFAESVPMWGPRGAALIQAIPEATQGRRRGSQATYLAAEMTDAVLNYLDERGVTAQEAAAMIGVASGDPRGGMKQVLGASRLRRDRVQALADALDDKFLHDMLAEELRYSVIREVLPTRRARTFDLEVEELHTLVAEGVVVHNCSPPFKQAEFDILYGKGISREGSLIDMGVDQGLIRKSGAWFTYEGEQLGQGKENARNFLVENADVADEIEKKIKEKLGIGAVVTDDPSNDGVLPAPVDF

[12] = Vero E6 cell cytotoxicity, dose response, cytotoxicity control for non-replicating M. tuberculosis project, secondary assay (AID 492998); format: functional, VeroE6; settings: Vero C1008
[13] = target: T4, Mannose-6-phosphate isomerase (Homo sapiens, UniProt P34949); test: human PMI inhibitors, high substrate, primary screen, biochemical, fluorescence intensity, high mannose 6-phosphate (AID 1220)
T4 sequence (P34949 whole entry): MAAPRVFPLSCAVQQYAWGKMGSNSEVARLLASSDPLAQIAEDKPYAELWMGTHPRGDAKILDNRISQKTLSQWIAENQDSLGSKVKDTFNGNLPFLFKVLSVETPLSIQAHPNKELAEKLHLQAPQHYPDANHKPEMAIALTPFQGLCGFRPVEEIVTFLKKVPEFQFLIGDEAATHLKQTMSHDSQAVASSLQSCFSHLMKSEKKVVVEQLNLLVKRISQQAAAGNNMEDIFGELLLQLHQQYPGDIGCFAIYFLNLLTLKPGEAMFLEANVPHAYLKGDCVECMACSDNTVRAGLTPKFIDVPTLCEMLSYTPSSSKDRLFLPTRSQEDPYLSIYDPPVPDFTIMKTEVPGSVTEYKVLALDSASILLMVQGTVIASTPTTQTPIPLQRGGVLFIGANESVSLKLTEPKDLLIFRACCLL

[14] = cells; format: functional
[15] = tested on: HEK293; test: inhibitors of LMP1-driven NF-kB reporter, dose response, cell-based, HEK293, luciferase, cherry-pick (AID 588343); format: functional; settings: Homo sapiens
[16] = target: T5, Heat shock factor protein 1 (Mus musculus, UniProt P38532); test: inhibition of MG132-induced HSE-luciferase signal, confirmation, cell-based, NIH3T3, luminescence, dose retest (AID 2382); format: functional;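 note: NIH3T3 fibroblasts with HSF1-driven luciferase reporter stressed by proteasome inhibitor MG132; luminescence from HSF1-driven luciferase expression after 8 hours of MG132 stress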
T5 sequence (P38532 whole entry): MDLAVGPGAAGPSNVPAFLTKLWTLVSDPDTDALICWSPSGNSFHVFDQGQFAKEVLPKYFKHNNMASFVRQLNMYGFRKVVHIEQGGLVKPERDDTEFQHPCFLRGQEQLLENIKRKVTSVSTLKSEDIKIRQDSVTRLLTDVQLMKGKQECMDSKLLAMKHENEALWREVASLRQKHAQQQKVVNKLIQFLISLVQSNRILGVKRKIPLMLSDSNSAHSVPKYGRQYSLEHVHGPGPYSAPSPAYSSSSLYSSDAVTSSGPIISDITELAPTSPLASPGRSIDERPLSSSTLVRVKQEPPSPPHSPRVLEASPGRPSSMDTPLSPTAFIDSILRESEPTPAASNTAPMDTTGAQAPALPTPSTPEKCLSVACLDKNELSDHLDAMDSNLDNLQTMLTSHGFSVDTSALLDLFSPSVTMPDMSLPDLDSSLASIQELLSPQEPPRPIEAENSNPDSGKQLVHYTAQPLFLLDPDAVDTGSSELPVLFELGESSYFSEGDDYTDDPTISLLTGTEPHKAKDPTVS

[17] = cells; format: functional, cell-based; remark: listed apart in the source
[18] = cells; format: functional, cell-based; remark: listed apart in the source
[19] = ADAM10 protease inhibitors, dose response, selectivity assay for ADAM17 exosite inhibitor project, biochemical, FRET peptide substrate, recombinant human ADAM10 (AID 743259);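 note: ADAM10 enzyme cleaving a FRET peptide substrate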
[20] = target: T6, fMet-Leu-Phe receptor (Homo sapiens, UniProt P21462); test: FPR ligands, dose response (AID 519); format: functional
T6 sequence (P21462 whole entry): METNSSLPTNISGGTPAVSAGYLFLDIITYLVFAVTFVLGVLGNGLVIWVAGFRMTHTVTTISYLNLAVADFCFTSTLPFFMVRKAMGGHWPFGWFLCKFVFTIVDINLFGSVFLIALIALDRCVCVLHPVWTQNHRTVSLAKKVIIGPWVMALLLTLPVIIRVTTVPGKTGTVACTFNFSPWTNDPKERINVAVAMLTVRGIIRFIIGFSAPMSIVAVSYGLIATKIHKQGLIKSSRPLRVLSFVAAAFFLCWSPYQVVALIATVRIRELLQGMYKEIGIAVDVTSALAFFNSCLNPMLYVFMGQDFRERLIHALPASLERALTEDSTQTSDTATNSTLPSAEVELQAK

[21] = target: T7, Adenosylmethionine-8-amino-7-oxononanoate aminotransferase (Mycobacterium tuberculosis, UniProt P9WQ81); test: Mycobacterium tuberculosis BioA enzyme inhibitor Measured in Biochemical System Using Plate Reader - 2163-02_Inhibitor_Dose_CherryPick_Activity.; format: functional, Mycobacterium tuberculosis UT205
T7 sequence (P9WQ81 whole entry): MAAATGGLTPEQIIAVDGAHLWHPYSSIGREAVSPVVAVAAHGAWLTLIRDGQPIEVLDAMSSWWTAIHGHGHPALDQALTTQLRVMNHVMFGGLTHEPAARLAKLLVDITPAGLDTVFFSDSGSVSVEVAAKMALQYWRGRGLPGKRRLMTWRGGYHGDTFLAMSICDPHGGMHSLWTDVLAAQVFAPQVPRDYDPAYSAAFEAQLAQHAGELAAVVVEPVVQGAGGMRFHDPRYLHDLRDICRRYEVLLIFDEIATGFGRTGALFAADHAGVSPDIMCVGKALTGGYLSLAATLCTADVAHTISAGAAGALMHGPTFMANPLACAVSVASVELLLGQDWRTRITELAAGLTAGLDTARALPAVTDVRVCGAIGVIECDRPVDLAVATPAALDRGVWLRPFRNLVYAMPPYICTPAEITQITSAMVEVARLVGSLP

[22] = ZM109 Env clade C HIV-1 fusion inhibitors, dose response, HeLa effector, CEM target cells, luciferase, cherry-pick (AID 652058); format: functional, cell-based
[23] = inhibitors of HIV Env-driven cell fusion, dose response, cherry-pick (AID 652057); format: functional, cell-based
[24] = CEM21 lymphoblast cell cytotoxicity, dose response, cytotoxicity control for viral fusion inhibitor project, CellTiter-Glo luminescence, cherry-picked (AID 652042); format: functional, cell-based;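 note: potency for signal decrease meaning cytotoxicity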
[25] = inhibitors of clade B AD8 Env fusion, dose response, cell-based, cherry-pick (AID 652062); format: functional;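 note: luciferase signal from cell-cell fusion driven by HIV-1 clade B AD8 Env; potency is for inhibitors of fusion seen as a drop in luminescence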

Cc1c(C(=O)OCC(C)C)[nH]c2c1C(=O)CC(c1ccco1)C2 (configuration not stated)
EC50 [1]: 1.95 µM (active) | EC50 [2]: 1.5 µM (active) | EC50 [3]: 0.212 µM (active) | IC50 [4]: > 67.5 µM (inactive) | IC50 [5]: > 67.5 µM (inactive)

c1ccc(CCN2CN(CCCN3CCOCC3)c3nc4ccccc4n3C2)cc1
EC50 [6]: > 29.9 µM (inactive) | IC50 [7]: > 29.9 µM (inactive)

CCOC(=O)C(Nc1ccc2ccccc2c1)C(=O)OCC
AC50 [8]: 5.7 µM (active) | EC50 [9]: > 91.2 µM (inactive) | EC50 [10]: > 91.2 µM (inactive) | EC50 [11]: 13 µM (active) | CC50 [12]: > 20 µM (active) | IC50 [13]: > 50 µM (not active) | IC50 [14]: 4.41 µM (active)

CC(C)Oc1ccc(C(=O)Nc2nnc(SCC(=O)N3CCOCC3)s2)cc1
IC50 [4]: > 67.5 µM (inactive) | IC50 [5]: > 67.5 µM (inactive) | AC50 [15]: 0.897 µM (active)

COc1ccc(C2NC(S)=NC3=C2CCCC3=C2SCCS2)cc1 (configuration not stated)
EC50 [16]: > 195 µM (not active) | IC50 [4]: > 67.5 µM (inactive) | EC50 [17]: > 350 µM (not active) | IC50 [5]: 7.9 µM (active) | EC50 [18]: 10.6 µM (active)

C[C@H](NC(=O)c1[nH]cnc1C(=O)NC(c1ccccc1)c1ccccc1)C(=O)OCc1ccccc1
IC50 [19]: > 69.5 µM (inactive)

COc1cccc(-c2nc(CS(=O)(=O)CC(=O)NCCC(C)C)c(C)o2)c1
Ki [20]: > 66.7 µM (inactive)

Cc1ccc(F)c(NC(=O)C2CCCCC2C(=O)O)c1 (configuration not stated)
Ki [20]: > 66.7 µM (inactive)

CCN(CC)c1ccc2cc(C(=O)c3cccs3)c(=O)oc2c1
AC50 [21]: 0.195 µM (active) | EC50 [9]: > 91 µM (inactive) | EC50 [10]: > 91 µM (inactive)

O=C(C[C@H]1C=C[C@@H](NC(=O)c2cccc(F)c2)[C@@H](CO)O1)NCc1ccc(Oc2ccccc2)cc1
AC50 [22]: 0.725 µM (active) | AC50 [23]: 0.988 µM (active) | AC50 [24]: 46.3 µM (active) | AC50 [25]: 2.83 µM (active)
